Reference: ChEMBL document CHEMBL5653631, “A Potent and Selective ULK1 Inhibitor Suppresses Autophagy and Sensitizes Cancer Cells to Nutrient Stress” (iScience, 2018)

Key:
[1] = target: Cyclin-dependent kinase 5 (Homo sapiens) (UniProt Q00535); assay: Inhibition of human recombinant CDK5 at 40 nM in presence of ATP by radiometric assay relative to control
[2] = target: Serine/threonine-protein kinase N1 (Homo sapiens) (UniProt Q16512); assay: Inhibition of human recombinant PKN1 at 40 nM in presence of ATP by radiometric assay relative to control
[3] = target: T1, Serine/threonine-protein kinase D3 (Homo sapiens) (UniProt O94806); assay: Inhibition of human recombinant PKD3 at 500 nM in presence of ATP by radiometric assay relative to control
T1 sequence (whole entry): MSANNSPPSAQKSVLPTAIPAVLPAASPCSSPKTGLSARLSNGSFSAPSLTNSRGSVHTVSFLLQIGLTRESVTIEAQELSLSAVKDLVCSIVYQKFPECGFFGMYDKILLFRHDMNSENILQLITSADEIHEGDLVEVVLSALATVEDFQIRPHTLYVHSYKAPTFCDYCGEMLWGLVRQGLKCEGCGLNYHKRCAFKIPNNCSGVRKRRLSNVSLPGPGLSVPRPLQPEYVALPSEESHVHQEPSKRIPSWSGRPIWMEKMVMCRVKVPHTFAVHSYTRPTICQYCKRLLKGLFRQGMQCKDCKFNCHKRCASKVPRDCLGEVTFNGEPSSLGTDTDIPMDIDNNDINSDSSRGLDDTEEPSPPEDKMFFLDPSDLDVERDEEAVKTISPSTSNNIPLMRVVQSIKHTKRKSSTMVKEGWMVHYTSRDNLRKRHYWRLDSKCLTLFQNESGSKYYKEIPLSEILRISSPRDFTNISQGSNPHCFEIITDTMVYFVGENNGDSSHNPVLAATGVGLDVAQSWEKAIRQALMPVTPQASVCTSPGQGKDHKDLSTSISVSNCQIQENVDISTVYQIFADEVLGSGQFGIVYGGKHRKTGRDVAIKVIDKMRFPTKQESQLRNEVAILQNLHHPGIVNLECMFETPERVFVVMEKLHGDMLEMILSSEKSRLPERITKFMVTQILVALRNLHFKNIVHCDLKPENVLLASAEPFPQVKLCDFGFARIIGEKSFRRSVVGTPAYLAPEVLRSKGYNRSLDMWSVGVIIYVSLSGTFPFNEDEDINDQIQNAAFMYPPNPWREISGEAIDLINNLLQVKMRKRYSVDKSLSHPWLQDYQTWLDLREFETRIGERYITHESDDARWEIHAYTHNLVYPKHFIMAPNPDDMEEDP

[4] = target: T2, Serine/threonine-protein kinase PLK4 (Homo sapiens) (UniProt O00444); assay: Inhibition of human recombinant PLK4 at 500 nM in presence of ATP by radiometric assay relative to control
T2 sequence (whole entry): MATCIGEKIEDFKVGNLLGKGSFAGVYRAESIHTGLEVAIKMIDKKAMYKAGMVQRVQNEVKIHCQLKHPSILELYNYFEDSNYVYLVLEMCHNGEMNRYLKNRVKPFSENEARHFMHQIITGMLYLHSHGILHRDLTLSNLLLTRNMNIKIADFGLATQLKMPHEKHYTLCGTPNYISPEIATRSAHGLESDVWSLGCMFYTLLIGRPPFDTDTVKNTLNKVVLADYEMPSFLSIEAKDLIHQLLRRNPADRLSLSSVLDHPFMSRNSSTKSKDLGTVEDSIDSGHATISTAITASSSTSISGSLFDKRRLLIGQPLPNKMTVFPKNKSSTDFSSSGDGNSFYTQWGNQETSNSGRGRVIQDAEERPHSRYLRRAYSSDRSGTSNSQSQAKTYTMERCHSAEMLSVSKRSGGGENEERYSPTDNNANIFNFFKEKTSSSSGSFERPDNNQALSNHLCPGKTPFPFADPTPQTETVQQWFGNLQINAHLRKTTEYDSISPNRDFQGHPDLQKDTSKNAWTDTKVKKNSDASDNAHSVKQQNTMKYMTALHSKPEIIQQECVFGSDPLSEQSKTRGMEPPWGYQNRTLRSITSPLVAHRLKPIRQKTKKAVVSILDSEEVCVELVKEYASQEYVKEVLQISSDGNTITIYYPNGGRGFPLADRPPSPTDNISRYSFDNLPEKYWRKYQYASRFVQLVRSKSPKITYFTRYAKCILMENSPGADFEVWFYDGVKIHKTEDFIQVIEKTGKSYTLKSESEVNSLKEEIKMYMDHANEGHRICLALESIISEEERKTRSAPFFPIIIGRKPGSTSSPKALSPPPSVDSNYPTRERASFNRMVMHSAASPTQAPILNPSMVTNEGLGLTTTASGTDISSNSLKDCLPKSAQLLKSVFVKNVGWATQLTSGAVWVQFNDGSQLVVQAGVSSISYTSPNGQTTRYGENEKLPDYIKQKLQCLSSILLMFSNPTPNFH

[5] = target: Rhodopsin kinase GRK7 (Homo sapiens) (UniProt Q8WTQ7); assay: Inhibition of human recombinant GPRK7 at 500 nM in presence of ATP by radiometric assay relative to control
[6] = target: Interleukin-1 receptor-associated kinase 1 (Homo sapiens) (UniProt P51617); assay: Inhibition of human recombinant IRAK1 at 15 nM in presence of ATP by radiometric assay relative to control
[7] = target: T3, Tyrosine-protein kinase ITK/TSK (Homo sapiens) (UniProt Q08881); assay: Inhibition of human recombinant ITK at 15 nM in presence of ATP by radiometric assay relative to control
T3 sequence (whole entry): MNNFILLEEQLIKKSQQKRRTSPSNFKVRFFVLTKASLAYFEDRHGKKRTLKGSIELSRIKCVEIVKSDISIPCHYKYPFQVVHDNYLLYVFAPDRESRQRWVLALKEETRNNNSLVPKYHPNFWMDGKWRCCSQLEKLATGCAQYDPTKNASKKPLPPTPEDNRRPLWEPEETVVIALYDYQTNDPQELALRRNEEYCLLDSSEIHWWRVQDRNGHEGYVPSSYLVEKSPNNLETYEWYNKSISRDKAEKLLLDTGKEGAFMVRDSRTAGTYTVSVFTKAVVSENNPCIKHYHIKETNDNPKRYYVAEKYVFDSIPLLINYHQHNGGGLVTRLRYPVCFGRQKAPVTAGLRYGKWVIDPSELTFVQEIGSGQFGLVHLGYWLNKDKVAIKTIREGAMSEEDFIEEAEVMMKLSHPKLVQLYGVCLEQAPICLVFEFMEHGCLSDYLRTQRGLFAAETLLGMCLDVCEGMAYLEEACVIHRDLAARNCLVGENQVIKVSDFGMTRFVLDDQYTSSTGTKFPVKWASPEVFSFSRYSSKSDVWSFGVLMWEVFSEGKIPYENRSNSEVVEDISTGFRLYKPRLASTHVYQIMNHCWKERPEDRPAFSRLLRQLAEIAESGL

[8] = target: [Pyruvate dehydrogenase (acetyl-transferring)] kinase isozyme 4, mitochondrial (Homo sapiens) (UniProt Q16654); assay: Inhibition of human recombinant PDHK4 at 15 nM in presence of ATP by radiometric assay relative to control
Sequence of [Pyruvate dehydrogenase (acetyl-transferring)] kinase isozyme 4, mitochondrial (Homo sapiens) (Q16654 whole entry, looked up): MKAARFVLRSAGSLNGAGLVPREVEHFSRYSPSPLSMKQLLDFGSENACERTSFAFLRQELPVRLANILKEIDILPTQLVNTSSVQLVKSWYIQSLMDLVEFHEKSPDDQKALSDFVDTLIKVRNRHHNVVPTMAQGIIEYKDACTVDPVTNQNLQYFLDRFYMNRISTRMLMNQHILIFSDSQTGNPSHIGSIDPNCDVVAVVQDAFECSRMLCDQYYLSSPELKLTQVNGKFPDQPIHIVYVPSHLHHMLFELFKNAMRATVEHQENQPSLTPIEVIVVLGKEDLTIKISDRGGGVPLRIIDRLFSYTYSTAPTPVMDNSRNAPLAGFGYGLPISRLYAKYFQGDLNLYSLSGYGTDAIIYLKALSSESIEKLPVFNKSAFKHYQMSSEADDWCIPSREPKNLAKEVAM

Sequence of Cyclin-dependent kinase 5 (Homo sapiens) (Q00535 whole entry, looked up): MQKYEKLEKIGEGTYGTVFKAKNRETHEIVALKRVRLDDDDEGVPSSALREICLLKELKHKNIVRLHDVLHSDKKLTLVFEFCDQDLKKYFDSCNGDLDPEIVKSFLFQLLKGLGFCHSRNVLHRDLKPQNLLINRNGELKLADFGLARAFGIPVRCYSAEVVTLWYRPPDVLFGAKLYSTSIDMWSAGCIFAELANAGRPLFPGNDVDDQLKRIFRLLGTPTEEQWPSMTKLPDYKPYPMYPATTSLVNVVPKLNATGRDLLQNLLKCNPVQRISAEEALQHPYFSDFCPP
Sequence of Interleukin-1 receptor-associated kinase 1 (Homo sapiens) (P51617 whole entry, looked up): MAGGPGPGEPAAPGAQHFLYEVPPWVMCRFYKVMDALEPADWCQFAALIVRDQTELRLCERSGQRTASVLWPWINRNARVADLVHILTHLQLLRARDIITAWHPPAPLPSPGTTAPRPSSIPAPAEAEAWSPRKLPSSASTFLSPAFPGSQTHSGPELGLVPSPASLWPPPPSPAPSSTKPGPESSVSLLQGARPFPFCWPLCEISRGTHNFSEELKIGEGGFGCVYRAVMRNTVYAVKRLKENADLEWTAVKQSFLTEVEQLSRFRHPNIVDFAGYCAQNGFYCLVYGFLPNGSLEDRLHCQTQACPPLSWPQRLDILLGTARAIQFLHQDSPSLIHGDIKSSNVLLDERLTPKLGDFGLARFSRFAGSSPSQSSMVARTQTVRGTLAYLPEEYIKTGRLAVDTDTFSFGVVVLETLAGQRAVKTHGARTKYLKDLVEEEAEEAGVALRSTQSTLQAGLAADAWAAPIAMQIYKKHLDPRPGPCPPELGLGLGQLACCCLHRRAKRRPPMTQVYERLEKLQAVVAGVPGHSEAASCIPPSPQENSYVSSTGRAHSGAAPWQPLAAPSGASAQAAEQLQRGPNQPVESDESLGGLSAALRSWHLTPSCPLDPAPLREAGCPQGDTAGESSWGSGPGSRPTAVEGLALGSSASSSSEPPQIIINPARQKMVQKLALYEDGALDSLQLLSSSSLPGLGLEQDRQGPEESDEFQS
Sequence of Rhodopsin kinase GRK7 (Homo sapiens) (Q8WTQ7 whole entry, looked up): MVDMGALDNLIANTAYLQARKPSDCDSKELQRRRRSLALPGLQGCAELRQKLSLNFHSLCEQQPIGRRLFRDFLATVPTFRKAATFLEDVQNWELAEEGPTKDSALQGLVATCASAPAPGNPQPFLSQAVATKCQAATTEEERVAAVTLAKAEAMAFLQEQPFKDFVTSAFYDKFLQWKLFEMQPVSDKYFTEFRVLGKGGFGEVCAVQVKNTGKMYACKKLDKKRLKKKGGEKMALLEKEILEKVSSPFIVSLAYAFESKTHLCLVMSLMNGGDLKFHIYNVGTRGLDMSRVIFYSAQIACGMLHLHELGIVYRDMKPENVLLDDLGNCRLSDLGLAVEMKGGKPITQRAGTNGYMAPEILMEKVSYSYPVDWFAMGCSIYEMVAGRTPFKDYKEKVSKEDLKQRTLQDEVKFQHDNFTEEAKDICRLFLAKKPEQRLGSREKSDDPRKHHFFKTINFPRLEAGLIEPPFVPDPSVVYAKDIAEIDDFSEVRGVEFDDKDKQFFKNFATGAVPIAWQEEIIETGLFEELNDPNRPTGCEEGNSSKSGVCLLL
Sequence of Serine/threonine-protein kinase N1 (Homo sapiens) (Q16512 2-942 limits assumed): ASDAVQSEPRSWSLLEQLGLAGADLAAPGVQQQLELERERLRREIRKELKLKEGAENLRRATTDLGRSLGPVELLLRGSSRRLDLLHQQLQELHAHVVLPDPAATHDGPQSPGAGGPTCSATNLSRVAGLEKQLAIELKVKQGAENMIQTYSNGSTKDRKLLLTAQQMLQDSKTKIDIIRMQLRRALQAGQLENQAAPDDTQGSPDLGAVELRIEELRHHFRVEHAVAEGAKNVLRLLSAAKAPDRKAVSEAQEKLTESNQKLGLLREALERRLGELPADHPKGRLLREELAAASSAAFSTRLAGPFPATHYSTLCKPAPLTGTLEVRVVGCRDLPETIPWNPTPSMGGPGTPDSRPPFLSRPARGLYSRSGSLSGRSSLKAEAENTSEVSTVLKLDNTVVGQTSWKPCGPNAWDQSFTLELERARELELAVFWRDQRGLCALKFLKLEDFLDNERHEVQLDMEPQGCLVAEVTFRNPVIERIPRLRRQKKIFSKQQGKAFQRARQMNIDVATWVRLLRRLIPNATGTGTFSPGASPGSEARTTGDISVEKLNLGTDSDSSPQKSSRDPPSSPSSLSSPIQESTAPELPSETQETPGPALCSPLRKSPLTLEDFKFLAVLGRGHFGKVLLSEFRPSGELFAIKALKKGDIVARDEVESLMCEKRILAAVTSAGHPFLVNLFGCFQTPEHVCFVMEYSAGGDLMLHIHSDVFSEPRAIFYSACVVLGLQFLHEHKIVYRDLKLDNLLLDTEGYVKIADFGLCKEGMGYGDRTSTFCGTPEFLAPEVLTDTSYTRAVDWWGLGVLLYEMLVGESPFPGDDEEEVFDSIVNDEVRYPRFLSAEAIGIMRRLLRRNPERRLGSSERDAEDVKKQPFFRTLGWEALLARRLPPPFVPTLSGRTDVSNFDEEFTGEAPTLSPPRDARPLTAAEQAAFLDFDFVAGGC

O=C(N[C@@H](C1CC1)C(F)(F)F)c1cc(-c2cnn3cc(-c4ccc(F)cc4)cnc23)cs1
inhibition [1]: 47%
inhibition [2]: 0%

CNC(=O)c1ccccc1Oc1nc(Nc2cc(OC)c(OC)c(OC)c2)ncc1Br
inhibition [3]: 0%
inhibition [4]: 46%
inhibition [5]: 10%

CC(C)[C@H](NC(=O)c1cc(-c2cnn3cc(-c4ccc(OCCN5CCCCC5)cc4)cnc23)cs1)C(F)(F)F
inhibition [6]: 36%
inhibition [7]: 4%
inhibition [8]: 2%
